Values quoted from earlier work as cited in US20030162725A1, “Synergistic pharmaceutical combinations for treating obesity with EGCG” (priority 2002, published 2003).

Test system: mouse

N[C@@H](Cc1c[nH]c2ccc(O)cc12)C(=O)O [5-HTP, 5-hydroxytryptophan]
LD50 i.p. (i.p., species not restated (studies in the rat and mouse)): 1400 mg/kg | LD50 per os (per os in the mouse): 2500 mg/kg
